Results taken from patent US20170246129A1, “COMPOSITION USING GUANIDINE COMPOUND FOR SUPPRESSING TRANSFORMING GROWTH FACTOR (TGF)-beta” (Peking University Third Hospital, priority 2016, published 2017).
Where a name gives a salt, the structure may show the parent alone. Read-outs that look alike come from different tables or passages of the source.

Key:
[1] = tested on: TGFβ1 induced phosphorylated Smad3 (p-Smad3); test: Western blotting of TGFβ1 induced phosphorylated Smad3 in 3T3 cells; type: cell-based, mouse; settings: compound 1 mmol/L premixed with TGF-β1 (5 ng/mL) for 2 h, 3T3 cells treated 30 min, FIG. 9
Procedure: 2: Moroxydinehydrochloride (dissovled in ddH2O, 1 mmol/L); 3: Phenylbiguanide (dissolved in DMSO, 1 mmoL/L); 4: 1-(2,3-Dichlorophenyl) biguanide hydrochloride (dissolved in DMSO, 1 mmoL/L); 5: 1,3-Di(o-tolyl)guanidine (dissolved in DMSO, 1mmoL/L); 6: Buformin hydrochloride (dissolved in EtOH, 1 mmol/L). These compounds and TGF-β1 (5 ng/mL) were premixed for 2 h separately and then 3T3 cells were treated with the mixture for 30 min prior to sample collection. […] Bicinchoninic acid reagents were used to measure the protein concentration. Equal amounts of proteins were separated by SDS-PAGE and transferred to polyvinylidene difluoride membranes. The blots were immunoreacted with primary antibodies and secondary antibodies conjugated with horseradish peroxidase. […] GAPDH antibodies were purchased from Santa Cruz Biotechnology (Santa Cruz, Calif., USA). Protein bands were visualized by enhanced chemiluminescence detection and the intensity was quantified by use of Image-J software.

[2] = molecular target: T1, [125I]-TGFβ1 binding to its receptor in 3T3 mouse fibroblasts (Homo sapiens, UniProt P01137); test: [125I]-TGFβ1 binding assay; settings: printed as log[IC50], 50 pM [125I]-TGFβ1, 4 h at 4° C., four independent experiments, read-out: log[IC50] of [125I]-TGFβ1 binding inhibition (converted)
T1 construct: endogenous in cells; host or cells: 3T3 mouse fibroblasts
Procedure: 3T3 mouse fibroblasts were seeded in a 24 well-plate and cultured in DMEM supplemented with 10% FBS and antibiotics (100 U/mL penicillin-streptomycin). […] After 4 h at 4° C., the medium was removed and cells were washed five times with ice-cold binding buffer (50 mM HEPES, 128 mM NaCl, 5 mM KCl, 5 mM MgSO4, and 1.2 mM CaCl2). The cells were then solubilized using binding buffer containing 1% Triton X-100 and the radioactivity was measured. Non-specific binding was determined in the presence of an excess (10 nM) of unlabeled TGFβ1.

TGF-β1/TβRII = molecular target: T2, TGF-β1/TβRII (Homo sapiens, UniProt P01137); test: AFM single-molecule force spectroscopy of TGF-β1-TβRII binding on HeLa cells
T2 construct: expressed in transfected cells; host or cells: HeLa
Procedure: The present invention investigated the binding force and the binding probability between TGF-β1 and TβRII on live cells using AFM-based single-molecule force spectroscopy. TGF-β1-modified AFM tips (type: NP-10, Bruker, Santa Barbara, Calif., USA) were prepared as followed. The spring constants of the tips, calibrated by the thermal fluctuation method, were in the range of 0.025-0.045 N/m. The tips were first cleaned and hydroxized through the treatment with chloroform, HF acid, alkaline solution (NH4OH/H2O2/H2O) 1:1:5, v/v) and piranha solution (98% H2SO4/H2O2) 7:3, v/v), respectively, to generate Si-OH on the wafers. Then they were transferred to a solution of 1.0% (v/v) MPTMS in toluene, incubated for 2 h at room temperature, and rinsed thoroughly with toluene to be modified with —SH groups. […]
Hela cells were transfected with the TβRII-GFP plasmid for 24 h, and the force measurements were performed on a PicoSPM II system with a PicoScan 3000 controller and a large scanner (Agilent, Santa Clara, Calif., USA). The AFM scanner was mounted on an inverted fluorescence microscope (Olympus IX71, Japan). […] All of the force curves were measured with the contact mode at room temperature using a soft cantilever (0.06 N m-1). […] The force curves were recorded using PicoScan 5 software (Molecular Imaging, Tempe, Ariz., USA) and analyzed using a program in MATLAB (MathWorks Corp., Natick, Mass., USA.).

[3] = persons receiving the drug therapeutically, cited from earlier work
TβRII-GFP on HeLa cells = test: Single-molecule fluorescence imaging (TIRFM) of TGF-β1-induced TβRII dimerization; type: cell-based; settings: TGF-β1 10 ng/mL, 15 min at 37° C., FIG. 2D
Procedure: In the previous study, individual green fluorescent protein (GFP)-tagged TβRII molecules were imaged on the cell membrane by total internal reflection fluorescence microscopy (TIRFM) to study the receptor activation.
Single molecule fluorescence imaging was performed with objective-type total internal reflection fluorescence microscopy (TIRFM) using an inverted Olympus IX71 microscope equipped with a total internal reflective fluorescence illuminator'a, 100X/1.45NA Plan Apochromat TIR objective and an intensified CCD (ICCD) camera (Pentamax EEV 512×512 FT, Roper Scientific). Hela cells were transfected with TβRII-GFP plasmid for 4 h, washed, and then imaged in the serum-free and phenol red-free MEM under the fluorescence microscopy. GFP was excited at 488-nm by an argon laser (Melles Griot, Carlsbad, Calif.). Movies of 200-300 frames were acquired for each sample at a frame rate of 10 Hz. […] To analyze single-molecule fluorescence intensity and the photobleaching steps, regions of interest for bleaching analysis were selected as followed. Firstly, the background fluorescence was subtracted from the movie acquired from the fixed cells using rolling ball method in Image J software (National Institutes of Health). […] Finally, time courses and the integrated fluorescence intensity of regions which were selected according to the method above were extracted for photobleaching analysis. […]

TGF-β1 = TGF-β1 (Homo sapiens, UniProt P01137); test: Surface plasmon resonance (SPR)-based assay; settings: Biacore T200, 25° C., TGF-β1 on CM5 chip, steady-state single site binding model
Procedure: Experiments were performed at 25° C. using a Biacore T200 and the data were analyzed using Biacore T200 evaluation software 2.0 (GE Healthcare, Stockholm, Sweden). […] The steady-state values were calculated from the sensorgrams and plotted against the concentrations. The data were fit to a single site binding model to calculate the KD.

T2 sequence (P01137 279-390 limits assumed): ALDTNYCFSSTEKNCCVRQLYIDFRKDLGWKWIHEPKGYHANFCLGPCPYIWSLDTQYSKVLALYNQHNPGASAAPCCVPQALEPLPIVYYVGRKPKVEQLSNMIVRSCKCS
T1 sequence (P01137 279-390 limits assumed): as above
Chain of TGF-β1 (P01137 279-390 limits assumed): as above

Compound: Cl.N=C(N)NC(=N)Nc1cccc(Cl)c1Cl [1-(2,3-Dichlorophenyl) biguanide hydrochloride]
- effect on p-Smad3 induced by TGFβ1 [1]: no effect

Compound: CN(C)C(=N)N=C(N)N [metformin, metformin hydrochloride]
- IC50 [2]: 69.2 µM
- binding force of TGF-β1 with TβRII (TGF-β1/TβRII; 50 μM, control 49.5±1.3, P>0.05): 49.3±1.4 pN
- binding probability of TGF-β1 and TβRII (TGF-β1/TβRII; metformin 50 μM, control 21.7±3.5%): 9.9±1.2%
- Blood or plasma concentrations [3]: 1 to 4 µg/mL
- Blood or plasma concentrations ([3]; conversion of μg/mL): 6 to 24 µM
- percentage of TβRII dimers induced by TGF-β1 (TβRII-GFP on HeLa cells): inhibited the percentage of dimers induced by TGF-β1 in a dose-dependent manner
- Kd (TGF-β1): 15.9 µM

Compound: Cc1ccccc1NC(=N)Nc1ccccc1C [1,3-Di(o-tolyl)guanidine]
- effect on p-Smad3 induced by TGFβ1 [1]: attenuate

Compound: Cl.N=C(N=C(N)N)N1CCOCC1 [moroxydinehydrochloride]
- effect on p-Smad3 induced by TGFβ1 [1]: no effect

Compound: Cl.N=C(NN)NN [1,3-Diaminoguanidine monohydrochloride]
- effect on p-Smad3 induced by TGFβ1 [1]: no effect

Compound: CCCCNC(=N)NC(=N)N [buformin hydrochloride, Buformin hydrochloride]
- effect on p-Smad3 induced by TGFβ1 [1]: attenuate
